Assay results as given in ChEMBL document CHEMBL3991601, “The target landscape of clinical kinase drugs” (Science, 2017).
pKd: −log10 of the molar value. Calls of active or inactive are those of the source. For most assays here, no stated cut-off is given here; in the data, actives have a measured Kd and inactives only a lower limit.

Key:
[1] = target: RAC-alpha serine/threonine-protein kinase (Homo sapiens, UniProt P31749)
[2] = target: BMP-2-inducible protein kinase (Homo sapiens, UniProt Q9NSY1)
Chain of BMP-2-inducible protein kinase (Q9NSY1 whole entry): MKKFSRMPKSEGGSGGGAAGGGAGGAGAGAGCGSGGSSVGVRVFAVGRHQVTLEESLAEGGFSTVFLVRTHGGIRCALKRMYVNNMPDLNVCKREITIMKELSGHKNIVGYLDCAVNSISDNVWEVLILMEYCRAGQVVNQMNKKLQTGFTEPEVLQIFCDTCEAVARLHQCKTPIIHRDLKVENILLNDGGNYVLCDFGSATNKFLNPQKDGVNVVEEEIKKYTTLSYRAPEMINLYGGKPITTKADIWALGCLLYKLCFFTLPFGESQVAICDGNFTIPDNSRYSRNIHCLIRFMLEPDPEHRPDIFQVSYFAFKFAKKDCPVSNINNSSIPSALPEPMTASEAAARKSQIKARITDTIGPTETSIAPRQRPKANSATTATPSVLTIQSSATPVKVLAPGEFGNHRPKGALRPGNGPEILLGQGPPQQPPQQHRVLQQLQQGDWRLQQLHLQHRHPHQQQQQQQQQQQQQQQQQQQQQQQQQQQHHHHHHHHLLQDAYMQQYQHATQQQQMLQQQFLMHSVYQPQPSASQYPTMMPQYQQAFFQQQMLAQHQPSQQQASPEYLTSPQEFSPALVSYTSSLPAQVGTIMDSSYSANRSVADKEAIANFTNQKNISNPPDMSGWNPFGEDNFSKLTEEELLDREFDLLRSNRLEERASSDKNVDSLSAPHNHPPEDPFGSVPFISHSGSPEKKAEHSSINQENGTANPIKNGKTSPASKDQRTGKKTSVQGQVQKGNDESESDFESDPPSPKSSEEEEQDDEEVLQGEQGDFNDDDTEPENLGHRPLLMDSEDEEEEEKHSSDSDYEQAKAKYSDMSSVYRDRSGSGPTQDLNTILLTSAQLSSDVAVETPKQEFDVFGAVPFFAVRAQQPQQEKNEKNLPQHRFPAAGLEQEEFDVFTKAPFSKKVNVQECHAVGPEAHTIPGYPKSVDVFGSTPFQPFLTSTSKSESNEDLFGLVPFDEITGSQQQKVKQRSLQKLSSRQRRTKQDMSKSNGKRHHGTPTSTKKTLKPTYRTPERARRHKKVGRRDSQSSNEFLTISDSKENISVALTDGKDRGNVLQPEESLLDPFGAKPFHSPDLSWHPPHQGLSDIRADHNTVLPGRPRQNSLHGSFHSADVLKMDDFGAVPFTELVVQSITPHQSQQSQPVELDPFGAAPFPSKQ

[3] = target: Tyrosine-protein kinase CSK (Homo sapiens, UniProt P41240)
Chain of Tyrosine-protein kinase CSK (P41240 whole entry): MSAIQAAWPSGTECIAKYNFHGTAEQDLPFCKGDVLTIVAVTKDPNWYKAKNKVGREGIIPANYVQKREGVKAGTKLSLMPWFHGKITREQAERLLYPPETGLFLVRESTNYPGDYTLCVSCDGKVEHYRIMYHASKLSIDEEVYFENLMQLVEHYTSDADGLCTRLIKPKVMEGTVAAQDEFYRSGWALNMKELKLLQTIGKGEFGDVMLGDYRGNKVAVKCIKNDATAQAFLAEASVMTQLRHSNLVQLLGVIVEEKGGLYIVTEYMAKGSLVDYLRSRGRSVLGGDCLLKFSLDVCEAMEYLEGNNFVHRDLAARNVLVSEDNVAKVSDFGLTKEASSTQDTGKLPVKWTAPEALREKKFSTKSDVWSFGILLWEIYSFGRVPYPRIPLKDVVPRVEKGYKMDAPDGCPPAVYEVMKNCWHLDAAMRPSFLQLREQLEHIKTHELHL

[4] = target: Casein kinase II subunit alpha' (Homo sapiens, UniProt P19784)
[5] = target: Ephrin type-A receptor 5 (Homo sapiens, UniProt P54756)
Chain of Ephrin type-A receptor 5 (P54756 whole entry): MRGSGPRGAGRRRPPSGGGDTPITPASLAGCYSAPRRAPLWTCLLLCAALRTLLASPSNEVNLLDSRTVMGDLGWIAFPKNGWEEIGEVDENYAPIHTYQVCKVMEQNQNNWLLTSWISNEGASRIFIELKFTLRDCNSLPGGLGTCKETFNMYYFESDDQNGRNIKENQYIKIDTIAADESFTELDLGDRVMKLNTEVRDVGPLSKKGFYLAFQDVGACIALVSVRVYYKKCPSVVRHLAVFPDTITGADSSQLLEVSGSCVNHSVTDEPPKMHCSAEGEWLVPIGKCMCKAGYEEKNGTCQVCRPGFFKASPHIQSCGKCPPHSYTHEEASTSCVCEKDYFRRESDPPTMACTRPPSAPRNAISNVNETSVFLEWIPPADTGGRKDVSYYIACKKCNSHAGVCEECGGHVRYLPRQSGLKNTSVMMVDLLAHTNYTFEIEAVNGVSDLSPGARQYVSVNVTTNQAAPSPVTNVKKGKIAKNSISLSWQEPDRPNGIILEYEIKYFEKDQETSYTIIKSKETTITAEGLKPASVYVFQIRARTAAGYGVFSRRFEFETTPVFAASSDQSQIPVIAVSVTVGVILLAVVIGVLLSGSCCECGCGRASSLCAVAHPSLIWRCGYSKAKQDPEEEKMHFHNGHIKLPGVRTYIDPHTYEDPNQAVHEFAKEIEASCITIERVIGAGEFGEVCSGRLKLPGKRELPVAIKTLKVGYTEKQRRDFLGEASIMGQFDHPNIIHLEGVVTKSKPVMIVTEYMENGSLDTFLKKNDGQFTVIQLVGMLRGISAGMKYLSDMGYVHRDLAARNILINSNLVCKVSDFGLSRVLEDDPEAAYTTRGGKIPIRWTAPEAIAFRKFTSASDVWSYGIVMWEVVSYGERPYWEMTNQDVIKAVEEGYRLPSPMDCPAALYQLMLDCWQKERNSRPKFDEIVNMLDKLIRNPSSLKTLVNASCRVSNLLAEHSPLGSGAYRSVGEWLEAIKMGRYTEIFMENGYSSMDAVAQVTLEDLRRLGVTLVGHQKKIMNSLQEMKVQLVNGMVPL

[6] = target: Ephrin type-A receptor 7 (Homo sapiens, UniProt Q15375)
[7] = target: Tyrosine-protein kinase Fer (Homo sapiens, UniProt P16591)
[8] = target: T1, Inhibitor of nuclear factor kappa-B kinase subunit epsilon (Homo sapiens, UniProt Q14164)
T1 sequence (Q14164 whole entry): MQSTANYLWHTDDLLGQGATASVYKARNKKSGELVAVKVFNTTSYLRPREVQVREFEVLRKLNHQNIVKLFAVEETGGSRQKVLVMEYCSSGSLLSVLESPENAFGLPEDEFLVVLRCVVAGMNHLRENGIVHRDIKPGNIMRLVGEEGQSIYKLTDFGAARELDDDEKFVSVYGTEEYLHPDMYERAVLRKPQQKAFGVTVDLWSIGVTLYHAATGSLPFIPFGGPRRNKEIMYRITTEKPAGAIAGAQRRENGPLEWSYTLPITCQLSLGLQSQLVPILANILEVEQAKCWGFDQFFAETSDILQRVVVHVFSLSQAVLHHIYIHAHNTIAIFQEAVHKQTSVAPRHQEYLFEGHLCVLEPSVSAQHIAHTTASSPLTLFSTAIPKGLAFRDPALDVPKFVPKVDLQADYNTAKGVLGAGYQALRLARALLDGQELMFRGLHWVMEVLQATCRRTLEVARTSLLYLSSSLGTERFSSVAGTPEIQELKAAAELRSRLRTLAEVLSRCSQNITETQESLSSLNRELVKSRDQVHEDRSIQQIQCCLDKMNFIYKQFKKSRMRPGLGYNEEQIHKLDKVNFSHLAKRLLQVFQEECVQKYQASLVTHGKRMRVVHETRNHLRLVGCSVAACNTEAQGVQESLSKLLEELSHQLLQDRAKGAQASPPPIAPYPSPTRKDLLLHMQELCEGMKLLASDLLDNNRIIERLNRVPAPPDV

[9] = target: MAP/microtubule affinity-regulating kinase 3 (Homo sapiens, UniProt P27448)
Chain of MAP/microtubule affinity-regulating kinase 3 (P27448 whole entry, canonical isoform): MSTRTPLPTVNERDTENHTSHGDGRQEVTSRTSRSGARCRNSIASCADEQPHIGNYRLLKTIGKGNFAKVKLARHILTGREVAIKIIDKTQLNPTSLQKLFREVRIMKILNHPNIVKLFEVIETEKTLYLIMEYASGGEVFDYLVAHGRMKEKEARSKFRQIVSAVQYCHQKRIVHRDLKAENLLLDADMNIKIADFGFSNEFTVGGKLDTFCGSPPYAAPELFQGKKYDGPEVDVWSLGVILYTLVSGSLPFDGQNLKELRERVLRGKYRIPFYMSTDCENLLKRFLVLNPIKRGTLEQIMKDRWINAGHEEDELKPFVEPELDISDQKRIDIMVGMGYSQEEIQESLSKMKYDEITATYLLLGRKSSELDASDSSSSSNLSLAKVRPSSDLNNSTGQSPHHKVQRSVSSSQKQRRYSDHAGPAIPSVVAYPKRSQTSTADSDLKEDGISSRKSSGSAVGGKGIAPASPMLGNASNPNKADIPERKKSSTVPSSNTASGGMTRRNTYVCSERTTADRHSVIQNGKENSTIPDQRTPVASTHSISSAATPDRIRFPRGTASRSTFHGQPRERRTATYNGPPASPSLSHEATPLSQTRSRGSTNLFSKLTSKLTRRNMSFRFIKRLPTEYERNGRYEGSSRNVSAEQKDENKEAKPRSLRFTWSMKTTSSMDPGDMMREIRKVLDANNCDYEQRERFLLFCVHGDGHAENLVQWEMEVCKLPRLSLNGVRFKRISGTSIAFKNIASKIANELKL

[10] = target: S-adenosylmethionine synthase isoform type-2 (Homo sapiens, UniProt P31153)
[11] = target: T2, Phosphorylase b kinase gamma catalytic chain, liver/testis isoform (Homo sapiens, UniProt P15735)
T2 sequence (P15735 whole entry): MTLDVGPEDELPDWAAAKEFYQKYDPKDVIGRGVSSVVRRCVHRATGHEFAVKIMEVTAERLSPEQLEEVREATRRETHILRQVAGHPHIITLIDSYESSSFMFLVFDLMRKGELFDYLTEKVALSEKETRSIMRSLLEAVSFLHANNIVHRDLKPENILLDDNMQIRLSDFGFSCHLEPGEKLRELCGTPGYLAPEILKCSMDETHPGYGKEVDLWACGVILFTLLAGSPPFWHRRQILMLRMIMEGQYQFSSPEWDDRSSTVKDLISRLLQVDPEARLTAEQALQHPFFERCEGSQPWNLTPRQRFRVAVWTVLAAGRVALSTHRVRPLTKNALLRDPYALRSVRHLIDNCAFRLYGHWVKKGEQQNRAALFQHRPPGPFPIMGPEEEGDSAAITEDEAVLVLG

[12] = target: Serine/threonine-protein kinase pim-1 (Homo sapiens, UniProt P11309)
Chain of Serine/threonine-protein kinase pim-1 (P11309 whole entry): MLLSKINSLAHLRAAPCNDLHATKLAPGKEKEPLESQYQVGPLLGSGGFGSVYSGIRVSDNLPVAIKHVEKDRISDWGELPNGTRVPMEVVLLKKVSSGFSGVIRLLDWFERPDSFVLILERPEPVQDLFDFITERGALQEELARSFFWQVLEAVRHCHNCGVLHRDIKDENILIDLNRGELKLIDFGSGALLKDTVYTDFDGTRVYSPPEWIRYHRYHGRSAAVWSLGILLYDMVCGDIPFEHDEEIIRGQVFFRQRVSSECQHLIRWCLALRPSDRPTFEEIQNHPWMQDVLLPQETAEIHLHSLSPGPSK

[13] = target: T3, Membrane-associated tyrosine- and threonine-specific cdc2-inhibitory kinase (Homo sapiens, UniProt Q99640)
T3 sequence (Q99640 whole entry): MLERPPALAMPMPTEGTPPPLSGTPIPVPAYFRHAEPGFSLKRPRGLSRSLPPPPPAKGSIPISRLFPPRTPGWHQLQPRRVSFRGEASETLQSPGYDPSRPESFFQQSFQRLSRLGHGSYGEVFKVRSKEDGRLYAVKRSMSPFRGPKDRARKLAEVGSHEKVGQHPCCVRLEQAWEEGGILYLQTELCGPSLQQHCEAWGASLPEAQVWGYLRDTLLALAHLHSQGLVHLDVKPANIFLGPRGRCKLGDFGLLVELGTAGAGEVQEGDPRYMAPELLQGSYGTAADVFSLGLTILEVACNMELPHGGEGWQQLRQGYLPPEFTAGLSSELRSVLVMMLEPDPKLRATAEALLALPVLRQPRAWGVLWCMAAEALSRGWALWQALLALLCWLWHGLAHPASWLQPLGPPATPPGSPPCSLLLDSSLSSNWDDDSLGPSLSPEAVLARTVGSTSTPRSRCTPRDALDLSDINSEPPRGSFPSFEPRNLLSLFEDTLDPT

[14] = target: Rho-associated protein kinase 2 (Homo sapiens, UniProt O75116)
Chain of Rho-associated protein kinase 2 (O75116 whole entry): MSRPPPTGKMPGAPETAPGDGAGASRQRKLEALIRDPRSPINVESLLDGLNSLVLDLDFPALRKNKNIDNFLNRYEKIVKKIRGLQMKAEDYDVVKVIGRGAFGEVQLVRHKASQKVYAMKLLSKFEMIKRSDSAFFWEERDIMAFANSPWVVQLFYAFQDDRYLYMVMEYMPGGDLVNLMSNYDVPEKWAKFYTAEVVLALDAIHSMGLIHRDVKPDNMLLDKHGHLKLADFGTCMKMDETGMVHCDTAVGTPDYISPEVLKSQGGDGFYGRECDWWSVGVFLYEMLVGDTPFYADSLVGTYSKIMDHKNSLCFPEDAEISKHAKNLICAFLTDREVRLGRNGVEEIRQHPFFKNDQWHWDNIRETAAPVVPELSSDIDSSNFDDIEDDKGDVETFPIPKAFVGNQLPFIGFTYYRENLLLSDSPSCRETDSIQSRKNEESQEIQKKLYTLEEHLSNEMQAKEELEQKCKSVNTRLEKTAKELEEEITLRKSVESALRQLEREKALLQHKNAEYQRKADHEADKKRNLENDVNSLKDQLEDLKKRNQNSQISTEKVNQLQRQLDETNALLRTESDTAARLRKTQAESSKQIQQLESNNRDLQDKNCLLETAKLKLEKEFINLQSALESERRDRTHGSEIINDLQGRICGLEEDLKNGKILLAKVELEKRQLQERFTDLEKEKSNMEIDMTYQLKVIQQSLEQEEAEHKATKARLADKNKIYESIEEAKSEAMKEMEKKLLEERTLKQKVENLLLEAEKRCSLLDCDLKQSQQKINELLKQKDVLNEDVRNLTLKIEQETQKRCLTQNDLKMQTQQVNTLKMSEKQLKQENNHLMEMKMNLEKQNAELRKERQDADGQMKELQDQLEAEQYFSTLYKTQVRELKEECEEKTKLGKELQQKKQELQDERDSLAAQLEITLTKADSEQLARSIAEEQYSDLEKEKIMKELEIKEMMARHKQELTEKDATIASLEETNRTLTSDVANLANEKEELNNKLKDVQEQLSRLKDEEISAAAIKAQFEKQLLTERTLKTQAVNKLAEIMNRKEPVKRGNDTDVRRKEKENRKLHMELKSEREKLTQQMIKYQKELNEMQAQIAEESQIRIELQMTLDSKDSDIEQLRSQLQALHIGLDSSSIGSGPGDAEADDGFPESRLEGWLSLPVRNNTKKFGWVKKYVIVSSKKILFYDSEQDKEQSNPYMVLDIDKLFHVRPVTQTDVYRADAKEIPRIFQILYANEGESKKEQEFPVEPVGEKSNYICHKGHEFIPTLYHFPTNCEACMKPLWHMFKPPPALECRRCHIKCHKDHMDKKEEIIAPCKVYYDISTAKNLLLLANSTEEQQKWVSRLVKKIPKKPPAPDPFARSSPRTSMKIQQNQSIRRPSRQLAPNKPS

[15] = target: Proto-oncogene tyrosine-protein kinase Src (Homo sapiens, UniProt P12931)
[16] = target: Elongation factor Tu, mitochondrial (Homo sapiens, UniProt P49411)

O=c1[nH]c([C@@H]2CCCN2)nc2c1oc1ccc(Cl)cc12
Kd [1]: > 30 µM (inactive)
Kd [2]: > 30 µM (inactive)
Kd [3]: > 30 µM (inactive)
Kd [4]: 0.022 µM (active)
Kd [5]: > 30 µM (inactive)
Kd [6]: > 30 µM (inactive)
Kd [7]: > 30 µM (inactive)
Kd [8]: > 30 µM (inactive)
Kd [9]: > 30 µM (inactive)
Kd [10]: > 30 µM (inactive)
Kd [11]: > 30 µM (inactive)
Kd [12]: 0.022 µM (active)
Kd [13]: > 30 µM (inactive)
Kd [14]: > 30 µM (inactive)
Kd [15]: > 30 µM (inactive)
Kd [16]: > 30 µM (inactive)

Cn1cc(-c2[nH]c3cc(NC(=O)[C@H](N)C4CCCCC4)cc4c3c2C=NNC4=O)cn1
Kd [1]: > 30 µM (inactive)
Kd [2]: 0.006 µM (active)
Kd [3]: > 30 µM (inactive)
Kd [4]: 14.8 µM (active)
Kd [5]: > 30 µM (inactive)
Kd [6]: > 30 µM (inactive)
Kd [7]: > 30 µM (inactive)
Kd [8]: > 30 µM (inactive)
Kd [9]: 0.387 µM (active)
Kd [10]: > 30 µM (inactive)
Kd [11]: > 30 µM (inactive)
Kd [12]: > 30 µM (inactive)
Kd [13]: > 30 µM (inactive)
Kd [14]: > 30 µM (inactive)
Kd [15]: 1.4 µM (active)
Kd [16]: > 30 µM (inactive)

NC[C@@](O)(c1ccc(Cl)cc1)c1ccc(-c2cn[nH]c2)cc1 [AT-13148]
Kd [1]: > 30 µM (inactive)
Kd [2]: > 30 µM (inactive)
Kd [3]: > 30 µM (inactive)
Kd [4]: > 30 µM (inactive)
Kd [6]: > 30 µM (inactive)
Kd [7]: > 30 µM (inactive)
Kd [8]: > 30 µM (inactive)
Kd [9]: > 30 µM (inactive)
Kd [10]: > 30 µM (inactive)
Kd [11]: > 30 µM (inactive)
Kd [12]: > 30 µM (inactive)
Kd [13]: > 30 µM (inactive)
Kd [14]: 0.026 µM (active)
Kd [15]: > 30 µM (inactive)
Kd [16]: > 30 µM (inactive)

COc1cccc(Nc2ncnn3ccc(CN4CC[C@@H](N)[C@H](O)C4)c23)c1 [BMS-690514]
Kd [1]: > 30 µM (inactive)
Kd [2]: 1.71 µM (active)
Kd [3]: 1.72 µM (active)
Kd [5]: > 30 µM (inactive)
Kd [6]: > 30 µM (inactive)
Kd [7]: > 30 µM (inactive)
Kd [8]: > 30 µM (inactive)
Kd [9]: 1.7 µM (active)
Kd [10]: > 30 µM (inactive)
Kd [11]: 4.62 µM (active)
Kd [12]: > 30 µM (inactive)
Kd [13]: 1.85 µM (active)
Kd [14]: > 30 µM (inactive)
Kd [15]: 1.15 µM (active)
Kd [16]: > 30 µM (inactive)

CCOc1ccn(-c2ccc(F)cc2)c(=O)c1C(=O)Nc1ccc(Oc2ccnc(N)c2Cl)c(F)c1 [BMS-777607]
Kd [1]: > 30 µM (inactive)
Kd [2]: > 30 µM (inactive)
Kd [3]: > 30 µM (inactive)
Kd [4]: > 30 µM (inactive)
Kd [5]: > 30 µM (inactive)
Kd [6]: > 30 µM (inactive)
Kd [7]: > 30 µM (inactive)
Kd [9]: > 30 µM (inactive)
Kd [10]: > 30 µM (inactive)
Kd [11]: > 30 µM (inactive)
Kd [12]: > 30 µM (inactive)
Kd [13]: > 30 µM (inactive)
Kd [14]: > 30 µM (inactive)
Kd [15]: > 30 µM (inactive)
Kd [16]: > 30 µM (inactive)

CCc1nc(C(N)=O)c(Nc2ccc(N3CCC(N4CCN(C)CC4)CC3)c(OC)c2)nc1NC1CCOCC1 [GILTERITINIB]
Kd [1]: > 30 µM (inactive)
Kd [2]: 0.046 µM (active)
Kd [3]: > 30 µM (inactive)
Kd [4]: 0.96 µM (active)
Kd [5]: > 30 µM (inactive)
Kd [6]: 2.98 µM (active)
Kd [8]: 1.47 µM (active)
Kd [9]: > 30 µM (inactive)
Kd [10]: > 30 µM (inactive)
Kd [12]: > 30 µM (inactive)
Kd [13]: > 30 µM (inactive)
Kd [14]: > 30 µM (inactive)
Kd [15]: > 30 µM (inactive)
pKd [16]: 6.33

O=S(=O)(c1cccc2c(O)nccc12)N1CCCNCC1 [HYDROXYFASUDIL]
Kd [1]: > 30 µM (inactive)
Kd [2]: > 30 µM (inactive)
Kd [3]: > 30 µM (inactive)
Kd [4]: > 30 µM (inactive)
Kd [5]: > 30 µM (inactive)
Kd [6]: > 30 µM (inactive)
Kd [7]: > 30 µM (inactive)
Kd [8]: > 30 µM (inactive)
Kd [9]: > 30 µM (inactive)
Kd [10]: > 30 µM (inactive)
Kd [11]: > 30 µM (inactive)
Kd [12]: > 30 µM (inactive)
Kd [13]: > 30 µM (inactive)
Kd [15]: > 30 µM (inactive)
Kd [16]: > 30 µM (inactive)

N#CCNC(=O)c1ccc(-c2ccnc(Nc3ccc(N4CCOCC4)cc3)n2)cc1 [MOMELOTINIB]
Kd [1]: > 30 µM (inactive)
Kd [3]: > 30 µM (inactive)
Kd [4]: 0.302 µM (active)
Kd [5]: > 30 µM (inactive)
Kd [6]: > 30 µM (inactive)
Kd [7]: > 30 µM (inactive)
Kd [8]: 0.2 µM (active)
Kd [10]: > 30 µM (inactive)
Kd [11]: > 30 µM (inactive)
Kd [12]: > 30 µM (inactive)
Kd [13]: > 30 µM (inactive)
Kd [14]: 0.219 µM (active)
Kd [15]: > 30 µM (inactive)
Kd [16]: > 30 µM (inactive)

FC(F)(F)c1ccc(CNc2ccc(Cc3c[nH]c4ncc(Cl)cc34)cn2)cn1 [PEXIDARTINIB]
Kd [1]: > 30 µM (inactive)
Kd [2]: > 30 µM (inactive)
Kd [3]: > 30 µM (inactive)
Kd [4]: > 30 µM (inactive)
Kd [5]: > 30 µM (inactive)
Kd [6]: > 30 µM (inactive)
Kd [7]: > 30 µM (inactive)
Kd [8]: > 30 µM (inactive)
Kd [9]: > 30 µM (inactive)
Kd [11]: > 30 µM (inactive)
Kd [12]: > 30 µM (inactive)
Kd [13]: > 30 µM (inactive)
Kd [14]: > 30 µM (inactive)
Kd [15]: > 30 µM (inactive)
Kd [16]: > 30 µM (inactive)

O=C(NC[C@H](O)CO)c1ccncc1Nc1ccc(I)cc1F [PIMASERTIB]
Kd [1]: > 30 µM (inactive)
Kd [2]: > 30 µM (inactive)
Kd [3]: > 30 µM (inactive)
Kd [4]: > 30 µM (inactive)
Kd [5]: > 30 µM (inactive)
Kd [7]: > 30 µM (inactive)
Kd [8]: > 30 µM (inactive)
Kd [9]: > 30 µM (inactive)
Kd [10]: > 30 µM (inactive)
Kd [11]: > 30 µM (inactive)
Kd [12]: > 30 µM (inactive)
Kd [13]: > 30 µM (inactive)
Kd [14]: > 30 µM (inactive)
Kd [15]: > 30 µM (inactive)
Kd [16]: > 30 µM (inactive)

C=CCN(/C=C1/C(=O)O[C@H](COC)[C@@]2(C)C1=C(O)C(=O)C1=C2[C@H](OC(C)=O)C[C@]2(C)C(=O)CC[C@@H]12)CC=C [SONOLISIB]
Kd [1]: > 30 µM (inactive)
Kd [2]: > 30 µM (inactive)
Kd [3]: > 30 µM (inactive)
Kd [4]: > 30 µM (inactive)
Kd [5]: > 30 µM (inactive)
Kd [7]: > 30 µM (inactive)
Kd [8]: > 30 µM (inactive)
Kd [9]: > 30 µM (inactive)
Kd [10]: > 30 µM (inactive)
Kd [11]: > 30 µM (inactive)
Kd [12]: > 30 µM (inactive)
Kd [13]: > 30 µM (inactive)
Kd [14]: > 30 µM (inactive)
Kd [15]: > 30 µM (inactive)
Kd [16]: > 30 µM (inactive)

Cc1cc(C(=O)Nc2cc(Oc3ccc4nc(NC(=O)C5CC5)cn4n3)ccc2C)n(C)n1 [TAK-593]
Kd [1]: > 30 µM (inactive)
Kd [2]: 10.9 µM (active)
Kd [3]: > 30 µM (inactive)
Kd [4]: > 30 µM (inactive)
Kd [5]: > 30 µM (inactive)
Kd [6]: > 30 µM (inactive)
Kd [7]: > 30 µM (inactive)
Kd [8]: > 30 µM (inactive)
Kd [9]: > 30 µM (inactive)
Kd [11]: > 30 µM (inactive)
Kd [12]: > 30 µM (inactive)
Kd [13]: > 30 µM (inactive)
Kd [14]: > 30 µM (inactive)
Kd [15]: > 30 µM (inactive)
Kd [16]: > 30 µM (inactive)
